Consider one sequence from PMC10998878, “Inhibition of acyl-CoA binding protein (ACBP) by means of a GABAARγ2-derived peptide” (Cell Death & Disease, 2024).

Entries after “also recorded” stand apart in the source; their conditions may differ.

Experiment [1] deals with T1, recombinant murine ACBP/DBI (Mus musculus, UniProt P31786).
T1 construct: biotin (biotinylated); purchased Institute of Psychiatry and Neuroscience of Paris, France
T1 sequence (P31786 1-87): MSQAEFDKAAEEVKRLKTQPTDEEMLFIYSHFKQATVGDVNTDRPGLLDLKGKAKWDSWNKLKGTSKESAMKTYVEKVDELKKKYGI
The experiment can be described thus: Surface plasmon resonance (Biacore 2000) real time interaction analysis. The format is binding. To be noted: for interaction with recombinant ACBP/DBI, in words: surface plasmon resonance, HBS-EP pH 7.4, 25 °C, 10 µM and 100 µM peptide. The procedure:
Kinetics of interaction of recombinant murine ACBP/DBI (Institute of Psychiatry and Neuroscience of Paris, France) with GABAARγ2 -derived eicosapeptide or its mutated derivative (synthesized by Biosynth ltd) was analyzed by surface plasmon resonance-based biosensor system – Biacore 2000 (Cytiva Life Sciences, Biacore, Uppsala, Sweden). SA sensor chip (Cytiva Life Sciences, Biacore) was activated by three consequent injections of 1 M NaCl, 0.05 M NaOH solution. After washing the sensor chip surface, biotinylated ACBP/DBI was immobilized on it. ACBP was diluted in HBS-EP buffer (10 mM HEPES […], 150 mM NaCl, 3 mM EDTA, and 0.005% Tween-20) at final concentration of 10 µg/mL and injected for 5 min contact time. The achieved immobilization density of ACBP was 1600 resonance units.
All analyses were performed in HBS-EP buffer (0.01 M HEPES pH 7.4, 0.15 M NaCl, 3 mM EDTA, 0.005% v/v Surfactant P20; 0.22 µm filtered and degassed). The system was run at flow rate of 30 μL/min. The temperature on chip surface was set to 25 °C. GABAARγ2-derived eicosapeptide or its mutated derivative (both stocked in DMSO at 1 mg/mL) were diluted in HBS-EP to 10 µM and 100 µM. The peptides were injected over immobilized ACBP/DBI and a control surface (streptavidin alone). The association and dissociation phases of the interaction were followed for 4 and 5 min, respectively. The interaction of peptides with ACBP/DBI was assessed by monitoring the dissociation from the immobilized protein. For visualization of the binding response Graph Pad Prism software was used.
In general terms: SPR reads the build-up and loss of mass on a sensor chip optically.

Experiment [2] relates to native ACBP/DBI protein (mouse liver extracts). The experiment can be described thus: Pull down / immunoprecipitation of native ACBP/DBI from liver extracts. The format is binding. The following applies: mouse liver protein extract (500 μg), peptide-coated beads, overnight 4 °C, immunoblot for ACBP. The procedure: The physical interaction between the native ACBP and GABAARγ2 peptides was examined by standard immunoprecipitation (IP) and immunoblotting protocols. In detail, liver protein extracts (500 μg) were immunoprecipitated on protein A/G-Sepharose beads (Merck Millipore, Burlington, MA, USA, #GE17-0618-01) coated with (1× 2× 4×) either GABAARγ2 wild type (WT) or mutated (F77I) eicosapeptide (Biosynth ltd) or its negative control (PBS). Each IP reaction was incubated overnight (4 °C) in a rotation chamber followed by three consecutive rounds of PBS washing the next day. Each washing round included a PBS resuspension of the pellet and a re-centrifugation (12,000 × g, 4 °C). Finally, beads were resuspended in 20 μL of NUPAGE 4× buffer (Life Technologies, CA, USA, #NP0008), heated at 100 °C (10 min), followed by standard immunoblotting for the ACBP protein (Abcam #ab231910).
Fig. 5 Biophysical and biochemical detection of a direct interaction between ACBP/DBI and the GABAARγ2-derived eicosapeptide. A Schematic representation of the GABAAR and the GABAARγ2-derived eicosapeptides. B Surface plasmon resonance kinetics of ACBP-GABAARγ2-derived eicosapeptide (WT and F77I) interactions. Representative ACBP immunoblot (C) from control- or GABAARγ2-immunoprecipitated samples. Anti-GABAARγ2 immunoprecipitation (IP) assay was employed in order to validate the GABAARγ2 WT peptide interaction with native ACBP (in murine hepatic protein extracts), and quantification (D). […] For statistical analysis p value (indicating statistical comparisons with the control condition) was calculated by Mann–Whitney U-test. E Anti-GABAARγ2 IP assay to address the physical interaction between GABAARγ2 peptides and murine hepatic ACBP protein. Interaction was validated using an increasing gradient of biotinylated WT/F77I peptides that were bound on the surface of streptavidin beads as part of the IP assay. […]
Background: A western blot detects proteins with antibodies after separation by electrophoresis.

Where [3] appears, read: listed as GABAARγ2-derived eicosapeptide.

As for INMEYTIDIFFAQTWYDRRL [GABAARγ2-EP-WT], the “association with immobilized ACBP/DBI (SPR)” value in experiment [1] (biotinylated recombinant ACBP/DBI on SA chip (1600 RU), peptide 10 µM and 100 µM in HBS-EP, pH 7.4, 25 °C, 30 μL/min, association 4 min, WT vs F77I) is recorded as “associated more rapidly”. Further, the “dissociation from immobilized ACBP/DBI (SPR)” value in experiment [1] (biotinylated recombinant ACBP/DBI on SA chip (1600 RU), peptide 10 µM and 100 µM in HBS-EP, pH 7.4, 25 °C, 30 μL/min, dissociation 5 min, WT vs F77I) is “dissociated more slowly from ACBP/DBI than GABAARγ2-EP-F77I”. The “interaction with recombinant ACBP/DBI, in words” value in experiment [1] is “efficiently interacts with native and recombinant ACBP/DBI; also recorded: able to interact with ACBP/DBI”; in experiment [1] (setting [3]) it was “validated the interaction”. Besides, the “pull down of endogenous/native ACBP/DBI, in words” value in experiment [2] is “efficiently interacts with native and recombinant ACBP/DBI; also recorded: able to interact with ACBP/DBI”; in experiment [2] (setting [3]) it was “validated the interaction”.
